Reference: patent publication US20170121344A1 (Siga Technologies, Inc., priority 2009, published 2017)
Read-outs that look alike come from different tables or passages of the source.

Experiments:
[1] = tested on: Dengue-2 (Strain New Guinea C); assay: Viral yield assay against Dengue-2 in Vero cells; assay type: cell-based, Dengue virus; settings: Dengue virus, DENV2, Vero cells, read-out: Activity (EC50 in μM) DENV-2
Method in brief: (§1)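 Progeny virus from compound-treated Vero monolayers infected at an MOI of 0.1 is collected after 48 h at 37° C and titered on Vero cells. DMSO serves as control.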

DENV-1 = assay: Viral yield assay against DENV-1 in Vero cells; assay type: cell-based; settings: Dengue virus
Method in brief: as §1

DENV-3 = assay: Viral yield assay against DENV-3 in Vero cells; assay type: cell-based; settings: Dengue virus
Method in brief: as §1

DENV-4 = assay: Viral yield assay against DENV-4 in Vero cells; assay type: cell-based; settings: Dengue virus
Method in brief: as §1

[2] = viral yield assay, MOI 0.1, 48 hours post infection

Compound | EC50 [1, 2] [µM] | EC50 (DENV-1; DENV1, viral yield assay) [µM] | EC50 (DENV-3; DENV3, viral yield assay) [µM] | EC50 (DENV-4; DENV4, viral yield assay) [µM] | EC50 [1] [µM] | EC50 (DENV-1; DENV1) [µM] | EC50 (DENV-3; DENV3) [µM] | EC50 (DENV-4; DENV4) [µM]
Nc1c(C(=O)Nc2ccc(Cl)cc2)sc2nc(-c3ccc(Cl)cc3)ccc12 [Compound 333, 3-amino-N,6-bis(4-chlorophenyl)thieno [2,3-b]pyridine-2-carboxamide] | < 5 | < 5 | < 5 | < 5 | – | – | – | –
COc1ccc(C(F)(F)F)cc1NC(=O)c1sc2nc(-c3ccc4c(c3)OCO4)ccc2c1N [Compound 599, 3-amino-6-(1,3-benzodioxol-5-yl)-N-[2-methoxy-5-(trifluoromethyl)phenyl]thieno [2,3-b]pyridine-2-carboxamide] | < 5 | < 5 | < 5 | < 5 | – | – | – | –
Nc1c(C(=O)Nc2ccc(OC(F)(F)F)cc2)sc2nc(-c3ccc(Cl)cc3)ccc12 [Compound 331, 3-amino-6-(4-chlorophenyl)-N-[4-(trifluoromethoxy)phenyl]thieno[2,3-b]pyridine-2-carboxamide] | < 5 | < 5 | < 5 | 5 to 25 | – | – | – | –
COc1ccc(-c2ccc3c(N)c(C(=O)Nc4ccc(Cl)cc4F)sc3n2)cc1OC [Compound 534, 3-amino-N-(4-chloro-2-fluoro-phenyl)-6-(3,4-dimethoxyphenyl)thieno[2,3-b] pyridine-2-carboxamide] | < 5 | < 5 | < 5 | < 5 | – | – | – | –
CC(=O)c1ccc(NC(=O)c2sc3nc(-c4cccs4)ccc3c2N)cc1 [Compound 429, N-(4-acetylphenyl)-3-amino-6-(2-thienyl)thieno[2,3-b]pyridine-2-carboxamide] | < 5 | < 5 | < 5 | < 5 | – | – | – | –
COc1ccc(-c2ccc3c(N)c(C(=O)Nc4ccc(Br)c(C(F)(F)F)c4)sc3n2)cc1OC [Compound 583, 3-amino-N-[4-bromo-3-(trifluoromethyl)phenyl]-6-(3,4-dimethoxyphenyl)thieno [2,3-b]pyridin-2-carboxamide] | < 5 | < 5 | < 5 | < 5 | – | – | – | –
Cc1cccc2cc3c(N)c(C(=O)Nc4cccc(C(F)(F)F)c4)sc3nc12 [Compound 364, 3-amino-8-methyl-N-(3-(trifluoromethyl)phenyl)thieno [2,3-b]quinoline-2-carboxamide] | < 5 | < 5 | < 5 | < 5 | – | – | – | –
O=C(Nc1c(C(=O)Nc2nnc(-c3ccccc3)s2)sc2nc3c(cc12)CCCCC3)c1cccnc1 [Compound 297, 3-(nicotinamido)-N-(5-phenyl-1,3,4-thiadiazol-2-yl)-6,7,8,9-tetrahydro-5H-cyclohepta[b]thieno[3,2-e]pyridine-2-carboxamide] | – | – | – | – | < 5 | < 5 | < 5 | < 5
COc1ccc(-c2ccc3c(N)c(C(=O)Nc4cccc(C(F)(F)F)c4)sc3n2)cc1 [Compound 472, 3-amino-6-(4-methoxyphenyl)-N-[3-(trifluoromethyl)phenyl]thieno[2,3-b] pyridine-2-carboxamide] | < 5 | < 5 | < 5 | < 5 | – | – | – | –
Cc1ccc(NC(=O)c2sc3nc(-c4cccs4)ccc3c2N)cc1F [Compound 458, 3-amino-N-(3-fluoro-4-methyl-phenyl)-6-(2-thienyl)thieno [2,3-b]pyridine-2-carboxamide] | < 5 | < 5 | < 5 | < 5 | – | – | – | –
COc1cccc(-c2ccc3c(N)c(C(=O)Nc4cccc(Cl)c4)sc3n2)c1 [Compound 561, 3-amino-N-(3-chlorophenyl)-6-(3-methoxyphenyl)thieno[2,3-b]pyridine-2-carboxamide] | < 5 | < 5 | < 5 | < 5 | – | – | – | –
Nc1c(C(=O)Nc2ccc(Cl)c(Cl)c2)sc2nc(-c3cccs3)ccc12 [Compound 413, 3-amino-N-(3,4-dichlorophenyl)-6-(2-thienyl)thieno[2,3-b]pyridine-2-carboxamide] | < 5 | < 5 | < 5 | < 5 | – | – | – | –
